Data from PubChem BioAssay AID250 (DTP/NCI, 2004).
Values joined by “and” are separate entries in the source; they are usually repeats but may differ in a detail not shown here. Identical values can stand only once. Inconclusive results and toxic doses are left out.

Test system: BDF1 mice, L1210 leukemia sc, survival T/C
Assay: NCI In Vivo Anticancer Drug Screen. Data for tumor model L1210 Leukemia (subcutaneous) in B6D2F1 (BDF1) mice
Details: endpoint: median survival time, higher = longer survival
Procedure, shortened: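 Tumors were transplanted into mice, the animals were treated with compound, survival or tumor size was then measured, and treated values were divided by vehicle-control values.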

Compound: CC(CN1CC(=O)NC(=O)C1)N1CC(=O)NC(=O)C1 (stereo unspecified)
- T/C (dose: 3.12 mg/kg/injection, schedule: Q03HX024 (ip), vehicle: other): 115 % of control
- T/C (dose: 3.12 mg/kg/injection, schedule: Q03HX024 (ip), vehicle: steriod suspending solution): 111 % of control
- T/C (dose: 6.25 mg/kg/injection, schedule: Q03HX024 (ip), vehicle: other): 156 % of control
- T/C (dose: 6.25 mg/kg/injection, schedule: Q03HX024 (ip), vehicle: steriod suspending solution): 155 % of control
- T/C (dose: 8.4 mg/kg/injection, schedule: Q03HX024 (sc), vehicle: Klucel (hydroxypropylcellulose) (HPC)): 150 % of control
- T/C (dose: 10.0 mg/kg/injection, schedule: Q03HX024 (sc), vehicle: Klucel (hydroxypropylcellulose) (HPC)): 184 % of control and 185 % of control
- T/C (dose: 12.5 mg/kg/injection, schedule: Q01DX009 (sc), vehicle: steriod suspending solution): 105 % of control
- T/C (dose: 12.5 mg/kg/injection, schedule: Q03HX024 (ip), vehicle: other): 191 % of control
- T/C (dose: 12.5 mg/kg/injection, schedule: Q03HX024 (ip), vehicle: steriod suspending solution): 161 % of control
- T/C (dose: 14.0 mg/kg/injection, schedule: Q03HX024 (sc), vehicle: Klucel (hydroxypropylcellulose) (HPC)): 180 % of control
- T/C (dose: 16.0 mg/kg/injection, schedule: Q01DX009 (ip), vehicle: Klucel (hydroxypropylcellulose) (HPC)): 109 % of control and 124 % of control
- T/C (dose: 16.0 mg/kg/injection, schedule: Q01DX009 (ip), vehicle: other): 119 % of control
- T/C (dose: 20.0 mg/kg/injection, schedule: Q03HX024 (sc), vehicle: Klucel (hydroxypropylcellulose) (HPC)): 194 % of control and 195 % of control
- T/C (dose: 23.0 mg/kg/injection, schedule: Q03HX024 (sc), vehicle: Klucel (hydroxypropylcellulose) (HPC)): 200 % of control
- T/C (dose: 25.0 mg/kg/injection, schedule: Q01DX009 (sc), vehicle: steriod suspending solution): 120 % of control
- T/C (dose: 25.0 mg/kg/injection, schedule: Q03HX024 (ip), vehicle: other): 160 % of control
- T/C (dose: 25.0 mg/kg/injection, schedule: Q03HX024 (ip), vehicle: steriod suspending solution): 155 % of control
- T/C (dose: 39.0 mg/kg/injection, schedule: Q03HX024 (sc), vehicle: Klucel (hydroxypropylcellulose) (HPC)): 205 % of control
- T/C (dose: 40.0 mg/kg/injection, schedule: Q03HX024 (sc), vehicle: Klucel (hydroxypropylcellulose) (HPC)): 199 % of control and 200 % of control
- T/C (dose: 50.0 mg/kg/injection, schedule: Q01DX009 (ip), vehicle: steriod suspending solution): 150 % of control
- T/C (dose: 50.0 mg/kg/injection, schedule: Q01DX009 (sc), vehicle: steriod suspending solution): 155 % of control
- T/C (dose: 50.0 mg/kg/injection, schedule: Q04DX003 (sc), vehicle: Klucel (hydroxypropylcellulose) (HPC)): 110 % of control and 112 % of control
- T/C (dose: 64.0 mg/kg/injection, schedule: Q01DX009 (ip), vehicle: Klucel (hydroxypropylcellulose) (HPC)): 154 % of control
- T/C (dose: 65.0 mg/kg/injection, schedule: Q01DX009 (sc), vehicle: Klucel (hydroxypropylcellulose) (HPC)): 170 % of control
- T/C (dose: 65.0 mg/kg/injection, schedule: Q03HX024 (sc), vehicle: Klucel (hydroxypropylcellulose) (HPC)): 205 % of control
- T/C (dose: 80.0 mg/kg/injection, schedule: Q03HX024 (sc), vehicle: Klucel (hydroxypropylcellulose) (HPC)): 118 % of control and 120 % of control
- T/C (dose: 100.0 mg/kg/injection, schedule: Q01DX009 (ip), vehicle: steriod suspending solution): 110 % of control
- T/C (dose: 100.0 mg/kg/injection, schedule: Q01DX009 (sc), vehicle: steriod suspending solution): 150 % of control and 175 % of control
- T/C (dose: 100.0 mg/kg/injection, schedule: Q04DX003 (ip), vehicle: other): 117 % of control
- T/C (dose: 100.0 mg/kg/injection, schedule: Q04DX003 (ip), vehicle: steriod suspending solution): 120 % of control
- T/C (dose: 100.0 mg/kg/injection, schedule: Q04DX003 (sc), vehicle: steriod suspending solution): 100 % of control and 120 % of control
- T/C (dose: 108.0 mg/kg/injection, schedule: Q01DX009 (sc), vehicle: Klucel (hydroxypropylcellulose) (HPC)): 160 % of control
- T/C (dose: 108.0 mg/kg/injection, schedule: Q04DX003 (sc), vehicle: Klucel (hydroxypropylcellulose) (HPC)): 118 % of control and 122 % of control
- T/C (dose: 200.0 mg/kg/injection, schedule: Q01DX009 (ip), vehicle: steriod suspending solution): 90 % of control
- T/C (dose: 200.0 mg/kg/injection, schedule: Q01DX009 (sc), vehicle: steriod suspending solution): 90 % of control
- T/C (dose: 200.0 mg/kg/injection, schedule: Q04DX003 (ip), vehicle: Klucel (hydroxypropylcellulose) (HPC)): 150 % of control
- T/C (dose: 200.0 mg/kg/injection, schedule: Q04DX003 (ip), vehicle: other): 175 % of control
- T/C (dose: 200.0 mg/kg/injection, schedule: Q04DX003 (ip), vehicle: steriod suspending solution): 150 % of control and 175 % of control
- T/C (dose: 200.0 mg/kg/injection, schedule: Q04DX003 (sc), vehicle: steriod suspending solution): 100 % of control
- T/C (dose: 256.0 mg/kg/injection, schedule: Q01DX009 (ip), vehicle: Klucel (hydroxypropylcellulose) (HPC)): 116 % of control and 121 % of control
- T/C (dose: 256.0 mg/kg/injection, schedule: Q01DX009 (ip), vehicle: other): 105 % of control
- T/C (dose: 300.0 mg/kg/injection, schedule: Q01DX009 (sc), vehicle: Klucel (hydroxypropylcellulose) (HPC)): 120 % of control
- T/C (dose: 300.0 mg/kg/injection, schedule: Q04DX003 (sc), vehicle: Klucel (hydroxypropylcellulose) (HPC)): 160 % of control and 169 % of control and 177 % of control
- T/C (dose: 400.0 mg/kg/injection, schedule: Q04DX003 (ip), vehicle: Klucel (hydroxypropylcellulose) (HPC)): 206 % of control
- T/C (dose: 400.0 mg/kg/injection, schedule: Q04DX003 (ip), vehicle: other): 156 % of control and 207 % of control
- T/C (dose: 400.0 mg/kg/injection, schedule: Q04DX003 (ip), vehicle: steriod suspending solution): 155 % of control and 185 % of control and 205 % of control
- T/C (dose: 500.0 mg/kg/injection, schedule: Q01DX009 (sc), vehicle: Klucel (hydroxypropylcellulose) (HPC)): 100 % of control
- T/C (dose: 512.0 mg/kg/injection, schedule: Q01DX009 (ip), vehicle: Klucel (hydroxypropylcellulose) (HPC)): 107 % of control
- T/C (dose: 800.0 mg/kg/injection, schedule: Q04DX003 (ip), vehicle: Klucel (hydroxypropylcellulose) (HPC)): 112 % of control
- T/C (dose: 800.0 mg/kg/injection, schedule: Q04DX003 (ip), vehicle: other): 111 % of control and 118 % of control
- T/C (dose: 800.0 mg/kg/injection, schedule: Q04DX003 (ip), vehicle: steriod suspending solution): 100 % of control and 110 % of control and 120 % of control
- T/C (dose: 800.0 mg/kg/injection, schedule: Q04DX003 (sc), vehicle: steriod suspending solution): 110 % of control and 120 % of control
- T/C (dose: 833.0 mg/kg/injection, schedule: Q04DX003 (oral), vehicle: Klucel (hydroxypropylcellulose) (HPC)): 161 % of control and 168 % of control
- T/C (dose: 833.0 mg/kg/injection, schedule: Q04DX003 (sc), vehicle: Klucel (hydroxypropylcellulose) (HPC)): 107 % of control and 111 % of control
- T/C (dose: 840.0 mg/kg/injection, schedule: Q04DX003 (oral), vehicle: Klucel (hydroxypropylcellulose) (HPC)): 186 % of control and 188 % of control
- T/C (dose: 1388.0 mg/kg/injection, schedule: Q04DX003 (sc), vehicle: Klucel (hydroxypropylcellulose) (HPC)): 100 % of control
